Data taken from patent US6025467A, “Parathyroid hormone derivatives and their use” (Takeda Chemical Industries, Ltd., priority 1995, dated 2000).
Residues, ends and D or L forms follow the SMILES beside them.

Legend:
[1] = target: T1, PTH receptor (Mus musculus, UniProt P41593); assay: cAMP increase in MC3T3-EI osteoblast-like cells (biological activity in vitro); assay type: cell-based; details: 1 nM analogue, room temperature for 30 minutes, total cAMP by radioimmunoassay
T1 construct: a mouse cranial bone-derived osteoblast-like cell strain, MC3T3-EI cells; endogenous in cells; host or cells: MC3T3-E1 mouse osteoblast-like cells
T1 sequence (P41593 27-591): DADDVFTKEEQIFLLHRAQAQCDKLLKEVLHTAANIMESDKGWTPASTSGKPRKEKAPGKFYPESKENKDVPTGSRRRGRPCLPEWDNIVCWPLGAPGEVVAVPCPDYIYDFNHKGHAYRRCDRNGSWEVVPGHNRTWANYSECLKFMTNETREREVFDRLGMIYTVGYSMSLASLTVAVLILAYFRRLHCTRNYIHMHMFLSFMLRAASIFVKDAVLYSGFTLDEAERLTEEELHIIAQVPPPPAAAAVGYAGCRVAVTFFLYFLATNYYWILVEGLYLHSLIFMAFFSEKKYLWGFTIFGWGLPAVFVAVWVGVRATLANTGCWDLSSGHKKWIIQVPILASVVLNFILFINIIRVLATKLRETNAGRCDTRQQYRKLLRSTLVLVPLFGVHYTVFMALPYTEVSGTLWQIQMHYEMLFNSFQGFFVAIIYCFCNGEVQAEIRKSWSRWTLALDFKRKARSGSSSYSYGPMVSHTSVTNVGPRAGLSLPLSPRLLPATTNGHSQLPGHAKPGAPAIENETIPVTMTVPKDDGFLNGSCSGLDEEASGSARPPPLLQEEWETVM
Protocol: The biological activity of the PTH(1-34) peptide analogues was evaluated by the method reported by Shigeno et al., The Journal of Biological Chemistry, 263, 18369-18377 (1988) with a modification. A culture solution (Hank's solution, containing 20 mM N-2-hydroxyethylpiperazine-N'-2-ethanesulfonic acid (HEPES), 0.1% bovine serum albumin and 0.5 mM isobutylmethyl-xanthine) containing a 0.01, 0.1, 1, 10 or 100 nM peptide derivative was added in an amount of 100 μl to a mouse cranial bone-derived osteoblast-like cell strain, MC3T3-EI cells, cultivated on a 96-well multiplate (Nunclon, Nunc), followed by reaction at room temperature for 30 minutes. After addition of 100 μl of 0.2N hydrochloric acid, the plate was immersed in boiling water for 2.5 minutes to extract cyclic adenosine monophosphate (cAMP) produced by a PTH receptor from the cells. The total cAMP in the culture solution and the cells was assayed using a commercial radioimmunoassay kit (cyclic AMP [^125 I] kit "Du Pont-Daiichi", Daiichi Kagaku Yakuhin). For the biological activity of the PTH(1-34) peptide derivatives, increases in cAMP caused by 1 nM analogues are shown in Table 3.

[2] = system: Sprangue Dawley rats; assay: Increase in femur bone weight in rats after subcutaneous dosing; assay type: in vivo, rat; details: 4.9 nmol/kg a day subcutaneously for two weeks; four-week-old male rats; dried right femur weight compared with vehicle group
Protocol: To four-week-old male Sprangue Dawley rats, the compounds synthesized in Example 1 […], and increases in the bone weight in their femurs were compared with that of a group to which a vehicle (0.15M NaCl, 0.001N hydrochloric acid and 2% heat-inactivated rat serum) was given. After administration, their right femurs were taken out, and the tissues around them were removed. Then, the femurs were dried at 100° C. for 3 hours and weighed.

Row | cAMP increase [1] [pmol/well] | SMILES | bone increase [2] [mg]
1 | 0.60 | CC[C@H](C)[C@H](NC(=O)[C@H](CCC(=O)O)NC(=O)[C@H](CO)NC(=O)[C@@H](NC(=O)[C@@H](N)CO)C(C)C)C(=O)N[C@@H](CCC(N)=O)C(=O)N[C@@H](CC(C)C)C(=O)N[C@@H](CCSC)C(=O)N[C@@H](Cc1c[nH]cn1)C(=O)N[C@@H](CC(=O)O)C(=O)N[C@@H](CC(C)C)C(=O)NCC(=O)N[C@@H](CCCCN)C(=O)N[C@@H](Cc1c[nH]cn1)C(=O)N[C@@H](CC(C)C)C(=O)N[C@@H](CC(N)=O)C(=O)N[C@@H](CO)C(=O)N[C@@H](CCSC)C(=O)N[C@@H](CCC(=O)O)C(=O)N[C@@H](CCCNC(=N)N)C(=O)N[C@H](C(=O)N[C@@H](CCC(=O)O)C(=O)N[C@@H](Cc1c[nH]c2ccccc12)C(=O)N[C@@H](CC(C)C)C(=O)N[C@@H](CCCNC(=N)N)C(=O)N[C@@H](CCCCN)C(=O)N[C@@H](CCCCN)C(=O)N[C@@H](CC(C)C)C(=O)N[C@@H](CCC(N)=O)C(=O)N[C@@H](CC(=O)O)C(=O)N[C@H](C(=O)N[C@@H](Cc1c[nH]cn1)C(=O)N[C@@H](CC(N)=O)C(=O)N[C@@H](Cc1ccccc1)C(=O)O)C(C)C)C(C)C [(3), [Asp^10] hPTH(1-34)] | 26.1
2 | 1.81 | CC[C@H](C)[C@H](NC(=O)[C@H](CCC(=O)O)NC(=O)[C@H](CO)NC(=O)[C@@H](NC(=O)[C@@H](N)CO)C(C)C)C(=O)N[C@@H](CCC(N)=O)C(=O)N[C@@H](CC(C)C)C(=O)N[C@@H](CCSC)C(=O)N[C@@H](Cc1c[nH]cn1)C(=O)N[C@@H](CCC(=O)O)C(=O)N[C@@H](CC(C)C)C(=O)NCC(=O)N[C@@H](CCCCN)C(=O)N[C@@H](Cc1c[nH]cn1)C(=O)N[C@@H](CC(C)C)C(=O)N[C@@H](CC(N)=O)C(=O)N[C@@H](CO)C(=O)N[C@@H](CCSC)C(=O)N[C@@H](CCC(=O)O)C(=O)N[C@@H](CCCNC(=N)N)C(=O)N[C@H](C(=O)N[C@@H](CCC(=O)O)C(=O)N[C@@H](Cc1c[nH]c2ccccc12)C(=O)N[C@@H](CC(C)C)C(=O)N[C@@H](CCCNC(=N)N)C(=O)N[C@@H](CCCCN)C(=O)N[C@@H](CCCCN)C(=O)N[C@@H](CC(C)C)C(=O)N[C@@H](CCC(N)=O)C(=O)N[C@@H](CC(=O)O)C(=O)N[C@H](C(=O)N[C@@H](Cc1c[nH]cn1)C(=O)N[C@@H](CC(N)=O)C(=O)N[C@@H](Cc1ccccc1)C(=O)O)C(C)C)C(C)C [(4), [Glu^10] hPTH(1-34)] | 31.1
3 | 2.58 | CC[C@H](C)[C@H](NC(=O)[C@H](CCC(=O)O)NC(=O)[C@H](CO)NC(=O)[C@@H](NC(=O)[C@@H](N)CO)C(C)C)C(=O)N[C@@H](CCC(N)=O)C(=O)N[C@@H](CC(C)C)C(=O)N[C@@H](CCSC)C(=O)N[C@@H](Cc1c[nH]cn1)C(=O)N[C@@H](CC(=O)O)C(=O)N[C@@H](Cc1ccccc1)C(=O)NCC(=O)N[C@@H](CCCCN)C(=O)N[C@@H](Cc1c[nH]cn1)C(=O)N[C@@H](CC(C)C)C(=O)N[C@@H](CC(N)=O)C(=O)N[C@@H](CO)C(=O)N[C@@H](CCSC)C(=O)N[C@@H](CCC(=O)O)C(=O)N[C@@H](CCCNC(=N)N)C(=O)N[C@H](C(=O)N[C@@H](CCC(=O)O)C(=O)N[C@@H](Cc1c[nH]c2ccccc12)C(=O)N[C@@H](CC(C)C)C(=O)N[C@@H](CCCNC(=N)N)C(=O)N[C@@H](CCCCN)C(=O)N[C@@H](CCCCN)C(=O)N[C@@H](CC(C)C)C(=O)N[C@@H](CCC(N)=O)C(=O)N[C@@H](CC(=O)O)C(=O)N[C@H](C(=O)N[C@@H](Cc1c[nH]cn1)C(=O)N[C@@H](CC(N)=O)C(=O)N[C@@H](Cc1ccccc1)C(=O)O)C(C)C)C(C)C [(5), [Asp^10, Phe^11] hPTH(1-34)] (H-SVSEIQLMHDFGKHLNSMERVEWLRKKLQDVHNF-OH) | 20.4
